# Results: patent US20030032003A1, “IN VIVO SELECTION” (priority 2000, published 2003)
# System: Hprt +/+ mice
# Assay: Histopathological analysis of mouse tissues after 6TG
# [1] = Hprt +/+, 6TG lethal 50-720 mg/kg, 7 mice
# [2] = Hprt +/+, 6TG sublethal 25 mg/kg, 2 mice
smiles,measurement,setting,value
"Nc1nc(S)c2[nH]cnc2n1 [6TG, 2-amino-6-merkaptopurine]","Bone marrow Depletion, severity grade","Hprt +/+, 25 mg/kg i.p.",3.5 ± 0.5
same,"Bone marrow Depletion, severity grade","Hprt +/+, 50 mg/kg i.p.",4
same,"Bone marrow Necrosis, severity grade","Hprt +/+, 50 mg/kg i.p.",3
same,"Gastric epithelium Atrophy, severity grade","Hprt +/+, 50 mg/kg i.p.",2
same,"Gastric epithelium Necrosis, severity grade","Hprt +/+, 50 mg/kg i.p.",1
same,"Intestinal epithelium Atrophy, severity grade","Hprt +/+, 50 mg/kg i.p.",2
same,"Intestinal epithelium Necrosis, severity grade","Hprt +/+, 50 mg/kg i.p.",1
same,"Liver Atrophy necrosis, severity grade","Hprt +/+, 50 mg/kg i.p.",3
same,"Spleen Lymphoid depletion, severity grade","Hprt +/+, 50 mg/kg i.p.",1
same,"Bone marrow Depletion, severity grade","Hprt +/+, 100 mg/kg i.p.",4
same,"Bone marrow Necrosis, severity grade","Hprt +/+, 100 mg/kg i.p.",3
same,"Gastric epithelium Atrophy, severity grade","Hprt +/+, 100 mg/kg i.p.",3
same,"Gastric epithelium Necrosis, severity grade","Hprt +/+, 100 mg/kg i.p.",3
same,"Intestinal epithelium Atrophy, severity grade","Hprt +/+, 100 mg/kg i.p.",3
same,"Intestinal epithelium Necrosis, severity grade","Hprt +/+, 100 mg/kg i.p.",3
same,"Liver Atrophy necrosis, severity grade","Hprt +/+, 100 mg/kg i.p.",2
same,"Spleen Lymphoid depletion, severity grade","Hprt +/+, 100 mg/kg i.p.",1
same,"Spleen Necrosis, severity grade","Hprt +/+, 100 mg/kg i.p.",2
same,"Bone marrow Depletion, severity grade","Hprt +/+, 150 mg/kg i.p.",4
same,"Bone marrow Necrosis, severity grade","Hprt +/+, 150 mg/kg i.p.",4
same,"Gastric epithelium Atrophy, severity grade","Hprt +/+, 150 mg/kg i.p.",1
same,"Gastric epithelium Necrosis, severity grade","Hprt +/+, 150 mg/kg i.p.",1
same,"Intestinal epithelium Atrophy, severity grade","Hprt +/+, 150 mg/kg i.p.",1
same,"Intestinal epithelium Necrosis, severity grade","Hprt +/+, 150 mg/kg i.p.",1
same,"Liver Atrophy necrosis, severity grade","Hprt +/+, 150 mg/kg i.p.",2
same,"Liver Centrilobular hypertrophy, severity grade","Hprt +/+, 150 mg/kg i.p.",2
same,"Spleen Lymphoid depletion, severity grade","Hprt +/+, 150 mg/kg i.p.",2
same,"Spleen Necrosis, severity grade","Hprt +/+, 150 mg/kg i.p.",2
same,"Bone marrow Depletion, severity grade","Hprt +/+, 225 mg/kg i.p.",3
same,"Bone marrow Necrosis, severity grade","Hprt +/+, 225 mg/kg i.p.",3
same,"Gastric epithelium Atrophy, severity grade","Hprt +/+, 225 mg/kg i.p.",1
same,"Gastric epithelium Necrosis, severity grade","Hprt +/+, 225 mg/kg i.p.",1
same,"Intestinal epithelium Atrophy, severity grade","Hprt +/+, 225 mg/kg i.p.",1
same,"Intestinal epithelium Necrosis, severity grade","Hprt +/+, 225 mg/kg i.p.",1
same,"Liver Atrophy necrosis, severity grade","Hprt +/+, 225 mg/kg i.p.",2
same,"Liver Centrilobular hypertrophy, severity grade","Hprt +/+, 225 mg/kg i.p.",1
same,"Liver Fatty change, severity grade","Hprt +/+, 225 mg/kg i.p.",1
same,"Spleen Lymphoid depletion, severity grade","Hprt +/+, 225 mg/kg i.p.",3
same,"Spleen Necrosis, severity grade","Hprt +/+, 225 mg/kg i.p.",4
same,"Bone marrow Depletion, severity grade","Hprt +/+, 338 mg/kg i.p.",4
same,"Bone marrow Necrosis, severity grade","Hprt +/+, 338 mg/kg i.p.",3
same,"Gastric epithelium Atrophy, severity grade","Hprt +/+, 338 mg/kg i.p.",3
same,"Gastric epithelium Necrosis, severity grade","Hprt +/+, 338 mg/kg i.p.",3
same,"Intestinal epithelium Atrophy, severity grade","Hprt +/+, 338 mg/kg i.p.",3
same,"Intestinal epithelium Necrosis, severity grade","Hprt +/+, 338 mg/kg i.p.",3
same,"Liver Atrophy necrosis, severity grade","Hprt +/+, 338 mg/kg i.p.",1
same,"Liver Centrilobular hypertrophy, severity grade","Hprt +/+, 338 mg/kg i.p.",2
same,"Liver Fatty change, severity grade","Hprt +/+, 338 mg/kg i.p.",2
same,"Spleen Lymphoid depletion, severity grade","Hprt +/+, 338 mg/kg i.p.",2
same,"Spleen Necrosis, severity grade","Hprt +/+, 338 mg/kg i.p.",1
same,"Bone marrow Depletion, severity grade","Hprt +/+, 507 mg/kg i.p.",3
same,"Bone marrow Necrosis, severity grade","Hprt +/+, 507 mg/kg i.p.",4
same,"Gastric epithelium Atrophy, severity grade","Hprt +/+, 507 mg/kg i.p.",1
same,"Gastric epithelium Necrosis, severity grade","Hprt +/+, 507 mg/kg i.p.",1
same,"Intestinal epithelium Atrophy, severity grade","Hprt +/+, 507 mg/kg i.p.",1
same,"Intestinal epithelium Necrosis, severity grade","Hprt +/+, 507 mg/kg i.p.",1
same,"Liver Atrophy necrosis, severity grade","Hprt +/+, 507 mg/kg i.p.",1
same,"Liver Centrilobular hypertrophy, severity grade","Hprt +/+, 507 mg/kg i.p.",1
same,"Liver Fatty change, severity grade","Hprt +/+, 507 mg/kg i.p.",2
same,"Spleen Lymphoid depletion, severity grade","Hprt +/+, 507 mg/kg i.p.",1
same,"Spleen Necrosis, severity grade","Hprt +/+, 507 mg/kg i.p.",2
same,"Bone marrow Depletion, severity grade","Hprt +/+, 720 mg/kg i.p.",4
same,"Bone marrow Necrosis, severity grade","Hprt +/+, 720 mg/kg i.p.",4
same,"Gastric epithelium Atrophy, severity grade","Hprt +/+, 720 mg/kg i.p.",1
same,"Gastric epithelium Necrosis, severity grade","Hprt +/+, 720 mg/kg i.p.",1
same,"Intestinal epithelium Atrophy, severity grade","Hprt +/+, 720 mg/kg i.p.",1
same,"Intestinal epithelium Necrosis, severity grade","Hprt +/+, 720 mg/kg i.p.",1
same,"Liver Atrophy necrosis, severity grade","Hprt +/+, 720 mg/kg i.p.",2
same,"Liver Centrilobular hypertrophy, severity grade","Hprt +/+, 720 mg/kg i.p.",1
same,"Spleen Lymphoid depletion, severity grade","Hprt +/+, 720 mg/kg i.p.",3
same,"Spleen Necrosis, severity grade","Hprt +/+, 720 mg/kg i.p.",3
same,"Bone marrow Depletion, average of lesion severity grade",[1],3.7 ± 0.5
same,"Bone marrow Necrosis, average of lesion severity grade",[1],3.4 ± 0.5
same,"Gastric epithelium Atrophy, average of lesion severity grade",[1],1.7 ± 0.9
same,"Gastric epithelium Necrosis, average of lesion severity grade",[1],1.6 ± 0.9
same,"Intestinal epithelium Atrophy, average of lesion severity grade",[1],1.7 ± 0.9
same,"Intestinal epithelium Necrosis, average of lesion severity grade",[1],1.6 ± 1.0
same,"Liver Atrophy necrosis, average of lesion severity grade",[1],1.9 ± 0.7
same,"Liver Centrilobular hypertrophy, average of lesion severity grade",[1],1.0 ± 0.8
same,"Liver Fatty change, average of lesion severity grade",[1],0.7 ± 0.9
same,"Spleen Lymphoid depletion, average of lesion severity grade",[1],1.9 ± 0.9
same,"Spleen Necrosis, average of lesion severity grade",[1],2.0 ± 1.3
same,"Bone marrow Depletion, average of lesion severity grade",[2],3.5 ± 0.5
same,"Bone marrow Necrosis, average of lesion severity grade",[2],0.5 ± 0.5
same,"Liver Atrophy necrosis, average of lesion severity grade",[2],2.5 ± 0.5
same,starting dose of liver lesions (necrosis and atrophy of hepatocytes),Hprt wildtype mice,25 mg/kg
same,lowest dose with liver centrilobular hypertrophy,wildtype mice,150 mg/kg
same,lowest dose with liver fatty change,wildtype mice,225 mg/kg
